Measurements from patent US6815398B1, “Substituted phenyluracils and their use as herbicides” (Bayer Aktiengesellschaft, priority 1999, dated 2004).

| melting point [°C] | Structure (SMILES) |
| --- | --- |
| 62 | COc1ccc(Oc2cc(-n3c(=O)cc(C(F)(F)F)n(C)c3=O)c(F)cc2C#N)cc1 [Example 2, 4-(3,6-dihydro-2,6-dioxo-3-methyl-4-trifluoro-methyl-1(2H)-pyrimidin-1-yl)-5-fluoro-2-(4-methoxy-phenoxy)-benzonitrile] |
| 84 | COc1ccc(Oc2cc(-n3c(=O)cc(C(F)(F)F)[nH]c3=O)c(F)cc2C#N)cc1 [Example 1, 4-(3,6-dihydro-2,6-dioxo-4-trifluoromethyl-1(2H)-pyrimidin-1-yl)-5-fluoro-2-(4-methoxy-phenoxy)-benzonitrile] |
